“Also recorded” adds a separate entry of the source.
Experiments:
SASP factors [1] = test: LCM and qRT-PCR of SASP factors in mouse lesions; assay type: in vivo; conditions: MIT/SAE vs MIT
Method: The stromal cells and cancer cells were specifically separated by LCM technology, total RNA was prepared and used for SASP expression detection. ^, P>0.05; *, P<0.05; **, P<0.01.
In a preclinical treatment trial, subcutaneously transplanted mice were fed with a standard experimental diet, after 2 weeks chemotherapy drugs mitoxantrone (MIT, dose: 0.2 mg/kg) and/or SAE (500 μl, dose: 10 mg/kg) via intraperitoneal administration. The time points were: the former was administrated on the first day of the 3rd, 5th and 7th weeks, and the latter was administrated on the first day of the 5th and 7th weeks. A total of 3 cycles of MIT administration were carried out throughout the course of treatment, and each cycle lasted for 2 weeks. After the course of treatment, mouse tumors were harvested for volume measurement and histological analysis. Each mouse cumulatively received 0.6 mg/kg body weight of MIT and 30 mg/kg body weight of SAE. In order to cause systemic expression of SASP factors induced by chemotherapy, MIT was administered to mice through intravenous infusion according to the above steps and sequence, but the dose was reduced to 0.1 mg/kg body weight/each time (the cumulative dose of MIT received in the whole course of treatment was 0.3 mg/kg body weight) to reduce drug-related toxicity. […]

PC3/PSC27 tumors = test: Disease-free survival of tumor-bearing NOD/SCID mice; assay type: in vivo, mouse; conditions: severe disease at tumor size ≥2000 mm3
Source text: When the tumor volume in the vehicle, MIT, SAE and MIT/SAE groups exceeds 2000 mm3, it is considered that severe disease has occurred, and the mice need to be killed in time and the tumor bearing status should be detected. ^, P>0.05; **, P<0.01.
Then the survival of animals in different drug-treated groups was compared, primarily in a time-prolonged manner to assess the consequences of tumor progression. In this preclinical cohort, animals were monitored for prostate tumor growth, and severe disease was judged to have occurred once the […] tumor burden in mice was prominent (size≥2000 mm3), which was a method used for assessing progression of tumors and other diseases in certain conditions.

SASP factors [2] = test: RNA-seq and GSEA expression profile of BLEO-induced senescent PSC27 cells; assay type: cell-based, human
Method: (§1) To cause cell damage, 50 μg/mL bleomycin (bleomycin, BLEO) was added to the culture medium when PSC27 cells grew to 80% (abbreviated as PSC27-CTRL). After 12 hours of drug treatment, the cells were simply washed 3 times with PBS, left in the culture medium for 7-10 days, and then the subsequent experiments were performed.
Whole-transcriptome sequencing was performed on the primary human prostate stromal cell line PSC27 under different treatment conditions. Total RNA samples were obtained from stromal cells. Their integrity was verified by Bioanalyzer 2100 (Agilent), RNA was sequenced by Illumina HiSeq X10, and gene expression levels were quantified by software package rsem (https://deweylab. github.io/rsem/). Briefly, rRNA was depleted from RNA samples with the RiboMinus Eukaryote Kit (Qiagen, Valencia, CA, USA); and according to the manufacturer's instructions, TruSeq Stranded Total RNA Preparation Kits (Illumina, San Diego, CA, USA) was used to construct a strand-specific RNA-seq library before deep sequencing.
Paired-end transcriptomic reads were mapped to a reference genome (GRCh38/hg38), and reference-annotation was performed from Gencode v27 using the Bowtie tool. Duplicate reads were identified using the picard Tools (1.98) script to mark duplicates (https://github. com/broadinstitute/picard), and only non-duplicate reads were retained. Reference splice junctions were provided by reference transcriptome (Ensembl Build 73). FPKM values were calculated with Cufflinks, and Cufflinks maximum likelihood estimation function was used to call differential gene expression. […]
Based on the data obtained from the preliminary analysis of RNA-seq, after analyzing and comparing each differentially expressed significant gene, the genes were sorted using the “wald statistics” obtained from DESeq2. […] DESeq2 independent filtering was based on the average of normalized read counts to select genes with very low expression levels. […]

[3] = test system: PC3/PSC27 transplanted tumors; test: PC3/PSC27 xenograft tumor volume in NOD/SCID mice; assay type: in vivo, mouse; conditions: single agent
Method: Every two weeks was a dosing cycle, and MIT (mitoxantrone) was intraperitoneally administered to the mice on the first day of the 3rd/5th/7th weeks. From the first day of the 5th week, the mice were intraperitoneally administered with SAE, […]. After the 8-week course of treatment, the mice were dissected for pathological identification and expression analysis.
All experimental mouse experiments were carried out in strict accordance with the relevant regulations of the Institutional Animal Care and Use Committee (IACUC), Shanghai Institutes for Biological Sciences, Chinese Academy of Sciences. Immuno-deficient mice (NOD-SCID mice, ICR) (body weight about 25 g) aged 6-8 weeks were used for animal experiments related to the present patent. Stromal cells PSC27 and epithelial cells PC3 were mixed at a predetermined ratio of 1:4, and each graft contained 1.25×10^6 cells for tissue remodeling. The xenograft tumors were implanted into mice by subcutaneous transplantation, and the animals were euthanized 8 weeks after the end of the transplantation surgery. Tumor volume was calculated according to the following formula: V=(π/6)×((1+w)/2)3 (V, volume; l, length; w, width).
In a preclinical treatment trial, subcutaneously transplanted mice were fed with a standard experimental diet, after 2 weeks chemotherapy drugs mitoxantrone (MIT, dose: 0.2 mg/kg) and/or SAE (500 μl, dose: 10 mg/kg) via intraperitoneal administration. The time points were: the former was administrated on the first day of the 3rd, 5th and 7th weeks, and the latter was administrated on the first day of the 5th and 7th weeks. A total of 3 cycles of MIT administration were carried out throughout the course of treatment, and each cycle lasted for 2 weeks. After the course of treatment, mouse tumors were harvested for volume measurement and histological analysis. Each mouse cumulatively received 0.6 mg/kg body weight of MIT and 30 mg/kg body weight of SAE. In order to cause systemic expression of SASP factors induced by chemotherapy, MIT was administered to mice through intravenous infusion according to the above steps and sequence, but the dose was reduced to 0.1 mg/kg body weight/each time (the cumulative dose of MIT received in the whole course of treatment was 0.3 mg/kg body weight) to reduce drug-related toxicity. The chemotherapy experiment ended at the end of the 8th week, and the mice were dissected immediately after sacrifice, and the xenograft tumors were collected and used for pathological system analysis.

PSC27 = test: SA-β-Gal staining of PSC27 cells (bleomycin-induced senescence, increasing SAE concentration); assay type: cell-based, human
Method: The P value of positive proportion of cells in these experimental groups for SAE at the concentrations of 100 μM, 200 μM, 400 μM, 800 μM, 1600 μM, 2000 μM and 3000 μM are statistically significant compared with the data at 0 μM.
as §1
Senescence-associated B-galactosidase (SA-β-Gal) staining was performed following a previously reported procedure (Debacq-Chainiaux, et. al., 2009). Briefly, cells in culture dishes were washed with PBS and fixed at room temperature. Cells were fixed in 2% formaldehyde and 0.2% glutaraldehyde for 3 minutes. SA-β-Gal was used for staining with freshly prepared staining solution overnight at 37° C. Images were taken on the next day and the percentage of positive cells per unit area was calculated.

SMILES: O=C(/C=C/c1ccc(O)c(O)c1/C(=C\c1ccc(O)c(O)c1)C(=O)O[C@H](Cc1ccc(O)c(O)c1)C(=O)O)O[C@H](Cc1ccc(O)c(O)c1)C(=O)O [SAE, salvianolic acid E]
- change of SASP factor expression when SAE was administered (SASP factors [1]): largely reversed
- median survival of tumor-bearing mice (PC3/PSC27 tumors): only a marginal extension of survival
- expression of SASP factors in senescent cells after SAE treatment (SASP factors [2]; BLEO-induced senescent PSC27): universally reduced; also recorded: generally decreased
- molecular signatures characterizing SASP expression or NF-κB activation (GSEA) (SASP factors [2]; BLEO-induced senescent PSC27 after SAE): significant repression
- expression profile of senescent cells (SASP factors [2]; RNA-seq, BLEO-induced senescent PSC27): significantly altered
- tumor shrinkage by the agent itself [3]: did not cause tumor shrinkage
- SAE concentration at which senescent cells begin to be eliminated (PSC27; SA-β-Gal staining): 200 µM
- concentration at which the killing effect on senescent cells reaches a threshold (PSC27; SA-β-Gal staining): 2000 µM
- killing effect on senescent cells (PSC27; SAE increased to 3000 μM): not further enhanced

Source: US20250295619A1, “Use of Salvianolic Acid E in the Preparation of Drugs Targeting Senescent Cells, Inhibiting Tumors or Extending Lifespan” (Shanghai Institute of Nutrition and Health, Chinese Academy …, priority 2024, published 2025)
